This series relates to Mouse 3T3-L1 pre adipocytes. As to the kind of experiment: Cell viability by Sulforhodamine B (SRB) assay. In kind it is cell-based. Particulars: 72 h. On the technique in general: Sulforhodamine B stains cellular protein and so reports cell mass.

The text below walks through data of patent US10258073B2, “Functional nutritional blend for thermo-metabolic performance” (priority 2016, dated 2019).

Experimental: Cell culture: Mouse immortalised 3T3-L1 pre adipocytes were cultured in 5% CO2 at 37° C. in growth media consisting of Dulbecco's Modified Eagles Medium (DMEM) containing 10% heat-inactivated fetal calf serum with 40 μg/mL of gentamycin 5×10^3 cells were seeded per well in a 96 well plate and allowed to grow as a confluent monolayer.
Mouse 3T3-L1 pre adipocytes were cultured in DMEM containing 10% heat-inactivated foetal calf serum. 5000 cells were seeded in 96 well culture plates and allowed to form adhere and form a monolayer. Test compounds were added at different concentrations and incubated for 72 hours at 37° C. and 5% CO2. Cells were fixed using 10% trichloroacetic acid (TCA) solution at 4° C. for one hour. SRB solution (0.4%) was added to the wells and incubated for 30 minutes at room temperature. Excess dye was washed 5 times with 1% acetic acid. 100 μl of 10 mM trizma base was added to the wells to solubilize the SRB. Absorbance was read using a microplate reader at a wave length of 492 nm. The absorbance of cells with growth media was considered as 100% viable and percentage viability was calculated based on this reading.

Molecule `O=C(/C=C/C=C/c1ccc2c(c1)OCO2)N1CCCCC1` [Piperine] had a Non-toxic concentration of 25 µg/mL.
